What all share (assay type): cell-based
Holding throughout (settings): compound concentration 50 μM, 72 hours

One test has as its system BxPC-3. As to the kind of experiment: Inhibition of tumor cell proliferation, CellTiter-Glo, BxPC-3. An outline of the steps:
(§1)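 Compound tested at 50 μM for 72 h, read by CellTiter-Glo. Survival rate = (treated−blank)/(control−blank) RLU ×100, binned as +++ ≤30%, ++ >30-≤60%, + 60-<90%. Seeding 2000-10000 cells/well depending on growth rate.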
(In general: Cellular ATP, detected with luciferase, serves as a proxy for viable cell number.)

A further test has as its system SU-DHL6. Put plainly: Inhibition of tumor cell proliferation, CellTiter-Glo, SU-DHL6. In outline: as §1
The test system of a further test is RPMI-8226. As to the kind of experiment: Inhibition of tumor cell proliferation, CellTiter-Glo, RPMI-8226. In outline:
as §1

The next test deals with K562. Put plainly: Inhibition of tumor cell proliferation, CellTiter-Glo, K562. An outline of the steps:
as §1

The test system of the next test is A549. Put plainly: Inhibition of tumor cell proliferation, CellTiter-Glo, A549. An outline of the steps:
as §1

For another test, the system named is MDA-MB-453. Put plainly: Inhibition of tumor cell proliferation, CellTiter-Glo, MDA-MB-453. An outline of the steps: as §1

On to `O=C1CCC(N2Cc3c(NC(=O)OCc4ccc(NC=C5C(=O)CC(c6ccccc6)CC5=O)nc4)cccc3C2=O)C(=O)N1` (stereo not drawn) [Compound 82], for which the cell survival rate (%) at 50 µM in the test with BxPC-3 (Homo sapiens, BXPC-3, read-out: Inhibitory activity against proliferation (cell survival rate) BxPC-3) is 60 to 90%; in the test on K562 (Homo sapiens, K562, read-out: Inhibitory activity against proliferation (cell survival rate) K562) it was 60 to 90%; in the test with MDA-MB-453 (Homo sapiens, MDA-MB-453, read-out: Inhibitory activity against proliferation (cell survival rate) MDA-MB-453) it was 30 to 60%. Further, the cell survival rate (% of control) at 50 µM in the test on SU-DHL6 (Homo sapiens, SU-DHL-6, read-out: Inhibitory activity against proliferation (cell survival rate) SU-DHL6) is not above 30%; in the test on RPMI-8226 (Homo sapiens, RPMI-8226, read-out: Inhibitory activity against proliferation (cell survival rate) RPMI-8226), 60 to 90%; in the test with A549 (Homo sapiens, A549, read-out: Inhibitory activity against proliferation (cell survival rate) A549), not above 30%.

On to `O=C1CCC(N2C(=O)c3cccc(NC(=O)OCc4ccc(NC=C5C(=O)CC(c6ccccc6)CC5=O)nc4)c3C2=O)C(=O)N1` (stereo not drawn) [Compound 83], for which the “Inhibitory activity against proliferation (cell survival rate) BxPC-3” value in the test with BxPC-3 is “+ (60≤survival rate (%)<90)”. The “Inhibitory activity against proliferation (cell survival rate) SU-DHL6” value in the test with SU-DHL6 is “+ (60≤survival rate (%)<90)”. Besides, in the test on RPMI-8226, the “Inhibitory activity against proliferation (cell survival rate) RPMI-8226” value was “+ (60≤survival rate (%)<90)”. Also, the “Inhibitory activity against proliferation (cell survival rate) K562” value in the test on K562 was “+ (60≤survival rate (%)<90)”. For the same compound, in the test with A549, the “Inhibitory activity against proliferation (cell survival rate) A549” value was “+ (60≤survival rate (%)<90)”. Besides, the “Inhibitory activity against proliferation (cell survival rate) MDA-MB-453” value in the test on MDA-MB-453 is “++ (30<survival rate (%)≤60)”.

`O=C1CCC(N2Cc3c(NC(=O)OCc4cnc(NC=C5C(=O)CC(c6ccccc6)CC5=O)s4)cccc3C2=O)C(=O)N1` (stereo not drawn) [Compound 84]: the “Inhibitory activity against proliferation (cell survival rate) BxPC-3” value in the test with BxPC-3 is “+ (60≤survival rate (%)<90)”. The “Inhibitory activity against proliferation (cell survival rate) SU-DHL6” value in the test on SU-DHL6 is “+++ (survival rate (%)≤30)”. Moreover, the “Inhibitory activity against proliferation (cell survival rate) RPMI-8226” value in the test with RPMI-8226 is given as “+++ (survival rate (%)≤30)”. Further, the “Inhibitory activity against proliferation (cell survival rate) K562” value in the test on K562 was “+++ (survival rate (%)≤30)”. Further, in the test on A549, the “Inhibitory activity against proliferation (cell survival rate) A549” value is on record as “+ (60≤survival rate (%)<90)”. In addition, in the test on MDA-MB-453, the “Inhibitory activity against proliferation (cell survival rate) MDA-MB-453” value is listed as “+++ (survival rate (%)≤30)”.

Consider `O=C1CCC(N2Cc3c(NC(=O)OCOC(=O)C=CC(=O)N4CCN(CCNC=C5C(=O)CC(c6ccccc6)CC5=O)CC4)cccc3C2=O)C(=O)N1` (stereo not drawn) [Compound 85], for which, in the test with BxPC-3, the “Inhibitory activity against proliferation (cell survival rate) BxPC-3” value is “+ (60≤survival rate (%)<90)”. The “Inhibitory activity against proliferation (cell survival rate) SU-DHL6” value with SU-DHL6 is “+ (60≤survival rate (%)<90)”. Further, the “Inhibitory activity against proliferation (cell survival rate) RPMI-8226” value in the test with RPMI-8226 is “+++ (survival rate (%)≤30)”. In addition, the “Inhibitory activity against proliferation (cell survival rate) K562” value with K562 is “++ (30<survival rate (%)≤60)”. The “Inhibitory activity against proliferation (cell survival rate) A549” value in the test on A549 was “++ (30<survival rate (%)≤60)”. For the same compound, the “Inhibitory activity against proliferation (cell survival rate) MDA-MB-453” value in the test with MDA-MB-453 is recorded as “+ (60≤survival rate (%)<90)”.

For `O=C1CCC(N2C(=O)c3cccc(NC(=O)OCOC(=O)/C=C/C(=O)N4CCN(CCNC=C5C(=O)CC(c6ccccc6)CC5=O)CC4)c3C2=O)C(=O)N1` (stereo not drawn) [Compound 86], in the test on BxPC-3, the “Inhibitory activity against proliferation (cell survival rate) BxPC-3” value is “++ (30<survival rate (%)≤60)”. The “Inhibitory activity against proliferation (cell survival rate) SU-DHL6” value in the test on SU-DHL6 is “+ (60≤survival rate (%)<90)”. Besides, the “Inhibitory activity against proliferation (cell survival rate) RPMI-8226” value in the test on RPMI-8226 is “+ (60≤survival rate (%)<90)”. The “Inhibitory activity against proliferation (cell survival rate) K562” value in the test with K562 was “+++ (survival rate (%)≤30)”. For the same compound, the “Inhibitory activity against proliferation (cell survival rate) A549” value with A549 is reported as “+++ (survival rate (%)≤30)”. Besides, the “Inhibitory activity against proliferation (cell survival rate) MDA-MB-453” value in the test on MDA-MB-453 is given as “+++ (survival rate (%)≤30)”.

Turning to `O=C1CCC(N2Cc3c(NC(=O)OCCOCCN4CCN(CCNC=C5C(=O)CC(c6ccccc6)CC5=O)CC4)cccc3C2=O)C(=O)N1` (stereo not drawn) [Compound 87], in the test on BxPC-3, the “Inhibitory activity against proliferation (cell survival rate) BxPC-3” value is listed as “+ (60≤survival rate (%)<90)”. Further, in the test with SU-DHL6, the “Inhibitory activity against proliferation (cell survival rate) SU-DHL6” value is given as “+++ (survival rate (%)≤30)”. Besides, in the test on RPMI-8226, the “Inhibitory activity against proliferation (cell survival rate) RPMI-8226” value was “+++ (survival rate (%)≤30)”. The “Inhibitory activity against proliferation (cell survival rate) K562” value in the test on K562 is reported as “++ (30<survival rate (%)≤60)”. For the same compound, the “Inhibitory activity against proliferation (cell survival rate) A549” value in the test on A549 is recorded as “++ (30<survival rate (%)≤60)”. Further, the “Inhibitory activity against proliferation (cell survival rate) MDA-MB-453” value in the test with MDA-MB-453 was “+++ (survival rate (%)≤30)”.

Values taken from patent US11021457B2, “Class of isoindolone-imide ring-1,3-dione-2-ene compounds, composition and use thereof” (WIGEN BIOMEDICINE TECHNOLOGY (SHANGHAI) CO., LTD., priority 2017, dated 2021).
